In PubChem BioAssay (NCI):
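GI50 = concentration required for 50% inhibition of growth. At the TGI there is no net growth.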

Columns and labels:
Assay in all cases: NCI tumour cell line growth inhibition, 384-well format
[1] = test system: SW-620 colon
[2] = test system: UO-31 renal
[3] = test system: HCC-2998 colon
[4] = test system: OVCAR-4 ovarian
[5] = test system: MDA-MB-231 breast
[6] = test system: U251 glioblastoma
[7] = test system: RXF 393 renal
[8] = test system: SN12C renal
[9] = test system: OVCAR-5 ovarian
[10] = test system: DU-145 prostate
[11] = test system: SK-MEL-28 melanoma
[12] = test system: NCI-H522 lung
[13] = test system: UACC-62 melanoma
[14] = test system: SF-268 CNS
[15] = test system: NCI-H322M lung
[16] = test system: PC-3 prostate
[17] = test system: MOLT-4 leukemia
[18] = test system: BT-549 breast
[19] = test system: TK-10 renal
[20] = test system: HOP-92 NSCLC
[21] = test system: CAKI-1 renal
[22] = test system: EKVX NSCLC
[23] = test system: M14 melanoma
[24] = test system: CCRF-CEM leukemia
[25] = test system: 786-0 renal
[26] = test system: KM12 colon
[27] = test system: NCI-H23 lung
[28] = test system: SF-539 CNS
[29] = test system: HT29 colon
[30] = test system: NCI-H226 lung
[31] = test system: A498 renal
[32] = test system: MDA-MB-435 melanoma
[33] = test system: K-562 leukemia
[34] = test system: SK-MEL-5 melanoma
[35] = test system: MCF7 breast
[36] = test system: OVCAR-8 ovarian
[37] = test system: UACC-257 melanoma
[38] = test system: T-47D breast
[39] = test system: SK-MEL-2 melanoma
[40] = test system: NCI-H460 NSCLC
[41] = test system: NCI/ADR-RES ovarian
[42] = test system: SK-OV-3 ovarian
[43] = test system: SNB-75 CNS
[44] = test system: COLO 205 colon
[45] = test system: HL-60(TB) leukemia
[46] = test system: IGROV1 ovarian
[47] = test system: SR leukemia

O=C(c1ccccc1O)c1[nH]c(Cl)c(Cl)c1-n1c(C(=O)c2ccccc2O)cc(Cl)c1Cl
GI50 [1]: 367 nM | TGI [1]: 1540 nM | GI50 [2]: 493 nM | TGI [2]: 1820 nM | GI50 [3]: 537 nM | TGI [3]: 1950 nM | GI50 [4]: 936 nM | TGI [4]: 4790 nM | GI50 [5]: 424 nM | TGI [5]: 1450 nM | GI50 [6]: 331 nM | TGI [6]: 1130 nM | GI50 [7]: 600 nM | TGI [7]: 2120 nM | GI50 [8]: 209 nM | TGI [8]: 746 nM | GI50 [9]: 1440 nM | TGI [9]: 4710 nM | GI50 [10]: 681 nM | TGI [10]: 8400 nM | GI50 [11]: 367 nM | TGI [11]: 1430 nM | GI50 [12]: 174 nM | TGI [12]: 536 nM | GI50 [13]: 599 nM | TGI [13]: 1860 nM | GI50 [14]: 116 nM | TGI [14]: 871 nM | GI50 [15]: 302 nM | TGI [15]: 1020 nM | GI50 [16]: 292 nM | TGI [16]: 978 nM | GI50 [17]: 301 nM | TGI [17]: 768 nM | GI50 [18]: 631 nM | TGI [18]: 1620 nM | GI50 [19]: 386 nM | TGI [19]: 4500 nM | GI50 [20]: 458 nM | TGI [20]: 1160 nM | GI50 [21]: 411 nM | TGI [21]: 2190 nM | GI50 [22]: 230 nM | TGI [22]: 842 nM | GI50 [23]: 682 nM | TGI [23]: 2380 nM | GI50 [24]: 240 nM | TGI [24]: 705 nM | GI50 [25]: 619 nM | TGI [25]: 1920 nM | GI50 [26]: 537 nM | TGI [26]: 1930 nM | GI50 [27]: 220 nM | TGI [27]: 610 nM | GI50 [28]: 537 nM | TGI [28]: 1630 nM | GI50 [29]: 518 nM | TGI [29]: 4330 nM | GI50 [30]: 634 nM | TGI [30]: 1890 nM | GI50 [31]: 399 nM | TGI [31]: 1760 nM | GI50 [32]: 801 nM | TGI [32]: 3050 nM | GI50 [33]: 238 nM | TGI [33]: 3070 nM | GI50 [34]: 417 nM | TGI [34]: 913 nM | GI50 [35]: 263 nM | TGI [35]: 1230 nM | GI50 [36]: 276 nM | TGI [36]: 959 nM | GI50 [37]: 461 nM | TGI [37]: 1650 nM | GI50 [38]: 218 nM | TGI [38]: 883 nM | GI50 [39]: 333 nM | TGI [39]: 922 nM | GI50 [40]: 288 nM | TGI [40]: 938 nM | GI50 [41]: 384 nM | TGI [41]: 1270 nM | GI50 [42]: 641 nM | TGI [42]: 2210 nM | GI50 [43]: 487 nM | TGI [43]: 2440 nM | GI50 [44]: 747 nM | TGI [44]: 3800 nM | GI50 [45]: 257 nM | TGI [45]: 572 nM | GI50 [46]: 521 nM | TGI [46]: 8560 nM | GI50 [47]: 340 nM | TGI [47]: 1100 nM
